Data published in ChEMBL document CHEMBL5370627, “Novel Indazole Compounds as TEAD Inhibitors for Treating Cancer” (ACS Med Chem Lett, 2023).

What was measured:
[1] = biological target: Transcriptional enhancer factor TEF-1 (Homo sapiens, UniProt P28347); assay: Inhibition of His-tagged TEAD1 (unknown origin) preincubated for 0.5 to 4 hrs followed by biotinylated lipid pocket probe addition and measured after 60 min by TR-FRET assay
[2] = biological target: Transcriptional enhancer factor TEF-3 (Homo sapiens, UniProt Q15561); assay: Inhibition of His-tagged TEAD4 (unknown origin) preincubated for 0.5 to 4 hrs followed by biotinylated lipid pocket probe addition and measured after 60 min by TR-FRET assay
Transcriptional enhancer factor TEF-3, sequence (Q15561 whole entry): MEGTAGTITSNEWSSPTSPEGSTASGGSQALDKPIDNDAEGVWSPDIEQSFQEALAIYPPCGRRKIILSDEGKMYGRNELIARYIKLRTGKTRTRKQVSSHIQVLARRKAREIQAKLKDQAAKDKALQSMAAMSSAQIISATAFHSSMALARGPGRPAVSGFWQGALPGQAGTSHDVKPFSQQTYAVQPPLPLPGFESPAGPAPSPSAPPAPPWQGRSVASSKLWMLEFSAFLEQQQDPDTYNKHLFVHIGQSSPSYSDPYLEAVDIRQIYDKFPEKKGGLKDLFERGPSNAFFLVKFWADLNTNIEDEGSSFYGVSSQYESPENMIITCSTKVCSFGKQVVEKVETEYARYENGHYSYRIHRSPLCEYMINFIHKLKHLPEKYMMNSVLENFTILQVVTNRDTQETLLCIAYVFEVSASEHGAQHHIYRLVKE

[3] = biological target: Transcriptional enhancer factor TEF-4 (Homo sapiens, UniProt Q15562); assay: Inhibition of His-tagged TEAD2 (unknown origin) preincubated for 0.5 to 4 hrs followed by biotinylated lipid pocket probe addition and measured after 60 min by TR-FRET assay
Transcriptional enhancer factor TEF-4, sequence (Q15562 whole entry): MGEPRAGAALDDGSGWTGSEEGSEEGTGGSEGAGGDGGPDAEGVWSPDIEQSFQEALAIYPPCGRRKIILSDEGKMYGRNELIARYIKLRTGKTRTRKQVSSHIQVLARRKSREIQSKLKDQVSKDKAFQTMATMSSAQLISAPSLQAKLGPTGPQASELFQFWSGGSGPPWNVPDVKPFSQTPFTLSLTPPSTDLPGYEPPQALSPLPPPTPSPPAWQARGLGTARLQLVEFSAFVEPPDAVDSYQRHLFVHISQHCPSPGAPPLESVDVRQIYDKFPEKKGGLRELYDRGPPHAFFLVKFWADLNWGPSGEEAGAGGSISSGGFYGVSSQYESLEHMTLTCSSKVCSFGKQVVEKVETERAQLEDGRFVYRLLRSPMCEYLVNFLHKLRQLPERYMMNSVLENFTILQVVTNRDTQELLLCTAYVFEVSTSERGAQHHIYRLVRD

[4] = biological target: Transcriptional enhancer factor TEF-5 (Homo sapiens, UniProt Q99594); assay: Inhibition of His-tagged TEAD3 (unknown origin) preincubated for 0.5 to 4 hrs followed by biotinylated lipid pocket probe addition and measured after 60 min by TR-FRET assay
Transcriptional enhancer factor TEF-5, sequence (Q99594 whole entry): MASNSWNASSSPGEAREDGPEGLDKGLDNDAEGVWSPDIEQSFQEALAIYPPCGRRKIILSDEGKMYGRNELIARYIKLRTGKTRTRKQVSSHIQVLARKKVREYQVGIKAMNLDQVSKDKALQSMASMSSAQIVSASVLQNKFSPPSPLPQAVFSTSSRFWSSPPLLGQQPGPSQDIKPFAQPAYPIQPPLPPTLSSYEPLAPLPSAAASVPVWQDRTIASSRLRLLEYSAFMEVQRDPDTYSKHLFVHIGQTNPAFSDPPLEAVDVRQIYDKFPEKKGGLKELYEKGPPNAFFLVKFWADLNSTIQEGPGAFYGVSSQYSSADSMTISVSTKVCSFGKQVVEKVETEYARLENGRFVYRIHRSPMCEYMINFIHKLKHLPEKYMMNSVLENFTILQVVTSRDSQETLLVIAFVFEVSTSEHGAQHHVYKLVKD

Transcriptional enhancer factor TEF-1, sequence (P28347 whole entry): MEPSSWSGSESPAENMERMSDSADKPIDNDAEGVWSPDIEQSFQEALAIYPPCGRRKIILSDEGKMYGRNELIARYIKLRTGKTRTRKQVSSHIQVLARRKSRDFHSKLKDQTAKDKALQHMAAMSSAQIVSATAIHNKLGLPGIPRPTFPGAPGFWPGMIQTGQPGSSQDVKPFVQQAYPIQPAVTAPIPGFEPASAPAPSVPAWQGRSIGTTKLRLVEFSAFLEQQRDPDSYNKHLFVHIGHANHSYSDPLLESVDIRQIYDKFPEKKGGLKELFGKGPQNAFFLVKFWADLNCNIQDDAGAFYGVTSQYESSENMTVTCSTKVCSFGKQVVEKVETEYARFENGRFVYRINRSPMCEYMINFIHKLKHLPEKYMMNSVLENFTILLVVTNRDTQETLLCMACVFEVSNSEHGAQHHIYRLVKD

IC50 [1] [nM]	IC50 [2] [nM]	IC50 [3] [nM]	IC50 [4] [nM]	SMILES
4	9	2	5	C#Cc1ccnc2c1c(C1CN(C(=O)C=C)C1)nn2-c1ccc(OC(F)(F)F)cc1
8	3			O=C(/C=C/CO)N1CC(c2nn(-c3ccc(OC(F)(F)F)cc3)c3nccc(Cl)c23)C1
